According to patent publication US20190119282A1, “IMIDAZOPYRIDAZINES USEFUL AS INHIBITORS OF THE PAR-2 SIGNALING PATHWAY” (Vertex Pharmaceuticals Incorporated, priority 2013, published 2019):

Columns and labels:
[1] = biological target: T1, PAR2 (HT-29 cells, SLIGKV activation) (Homo sapiens, UniProt P55085); experiment: Ca FLIPR TETRA assay, ANTAGONIST mode, stimulation with 8 μM SLIGKV; assay type: cell-based; details: HT-29 cells
T1 construct: host or cells: HT-29 cells
T1 sequence (P55085 26-397): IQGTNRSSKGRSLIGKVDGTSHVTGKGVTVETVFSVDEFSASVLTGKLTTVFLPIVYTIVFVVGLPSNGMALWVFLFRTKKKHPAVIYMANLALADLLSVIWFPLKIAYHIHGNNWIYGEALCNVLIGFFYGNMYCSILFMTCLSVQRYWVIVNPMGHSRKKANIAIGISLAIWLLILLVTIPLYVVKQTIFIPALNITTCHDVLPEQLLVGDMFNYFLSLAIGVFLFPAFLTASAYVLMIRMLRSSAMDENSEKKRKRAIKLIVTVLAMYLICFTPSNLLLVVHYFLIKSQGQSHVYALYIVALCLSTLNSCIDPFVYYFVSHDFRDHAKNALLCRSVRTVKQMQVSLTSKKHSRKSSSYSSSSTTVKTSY
In short: (§1)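 Antagonist-mode FLIPR Tetra Ca2+ readout: after 30 min r.t. compound pre-incubation, HT-29 cells are challenged with trypsin (3.1 U/mL final), SLIGKV (8 μM), thrombin (1 U/mL) or UTP (0.6 μM). Cells were plated overnight in 1% FBS medium and dye-loaded with Calcium 5; an initial read checks compound agonism.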

[2] = biological target: T2, PAR2 (HT-29 cells, trypsin activation) (Homo sapiens, UniProt P55085); experiment: Ca FLIPR TETRA assay, ANTAGONIST mode, stimulation with 3.1 U/mL trypsin; assay type: cell-based; details: HT-29 cells
T2 construct: host or cells: HT-29 cells
T2 sequence (P55085 26-397): T1 sequence (P55085 26-397)
In short: as §1

[3] = test system: Thrombin-stimulated Ca2+ response in HT-29 cells; experiment: Ca FLIPR TETRA assay, ANTAGONIST mode, stimulation with 1 U/mL Thrombin; assay type: cell-based, human; details: Homo sapiens, HT-29 cells
In short: as §1

[4] = test system: UTP-stimulated Ca2+ response in HT-29 cells; experiment: Ca FLIPR TETRA assay, ANTAGONIST mode, stimulation with 0.6 μM UTP; assay type: cell-based, human; details: Homo sapiens, HT-29 cells
In short: as §1

[5] = In vivo rat pharmacokinetics (intravenous and oral); details: plasma; for clearance: intravenous 0.5 to 1 mg/kg, read-out: Clp; for Vd: intravenous, read-out: Vss; for bioavailability: oral by gavage; for half-life: read-out: T ½ (converted)
Description: Example 61: Protocol for Testing PAR2 Compounds In Vivo Rat Pharmacokinetics Experiments
Compounds delivered by intravenous route were formulated using a solution formulation consisting of 5% N-methylpyrrolidone 10% Vitamin E-TPGS and 85% water (v/v/) or a solution formulation consisting of 25% N-methylpyrrolidone 35% polyethylene glycol 400 and 40% water (v/v/). Intravenous formulations were administered by a bolus injection (over approximately 10 seconds) using a hypodermic needle attaches to a syringe (tail vein). The dose volume was varied from 1 to 2 mL/kg and the dose was varied from 0.5 to 1 mg/kg. Compounds delivered orally were formulated as a solution formulation consisting of 5% N-methylpyrrolidone 10% Vitamin E-TPGS and 85% water (v/v/) or as fine suspension using a cellulose derivative suspending agent with or without the addition of a wetting agent/surfactant. Milling of large particles was performed as needed to reduce particle size using focused electroacoustic milling, homogenization or low energy media milling. A spray-dried solid dispersion was prepared for key compounds using 1:1 combination with cellulose derivatives. Test compounds were administered orally by gavage using a gavage plastic needle attached to a syringe. The dose volume was varied from 5 to 10 mL/kg and the dose was varied from 1 to 600 mg/kg.
Rats were bled by venipuncture (jugular vein) and the samples were collected into tubes containing K3EDTA. The tubes were placed on wet ice until processed. The samples were centrifuged for approximately 10 minutes (at approximately 4° C.) within approximately 30 minutes of collection to prepare plasma or diluted in citrate buffer (1:3) and stored frozen (approximately −30° C.). Thawed plasma or whole blood samples were extracted by protein precipitation using an organic solvent followed by centrifugation. The supernatants were separated by high-performance liquid chromatography coupled to mass spectrometry detection. A calibration curve was prepared using reference standard compounds spiked into either blank plasma or whole blood matrices and extracted similarly to unknown samples. Pharmacokinetic parameters were calculated using non-compartmental analysis.

[6] = stimulation with 3.1 U/mL trypsin
[7] = stimulation with 1 U/mL Thrombin
[8] = antagonist mode, stimulation with 8 μM SLIGKV
[9] = antagonist mode, stimulation with 3.1 U/mL trypsin
[10] = antagonist mode, stimulation with 1 U/mL Thrombin
[11] = antagonist mode, stimulation with 0.6 μM UTP

SMILES	IC50 ([1]; stimulation with 8 μM SLIGKV) [nM]	IC50 [2, 6] [nM]	IC50 [3, 7] [nM]	IC50 ([4]; stimulation with 0.6 μM UTP) [nM]	clearance [5] [mL/min/kg]	Vd [5] [L/kg]	bioavailability [5] [%]	half-life [5] [h]	IC50 [1, 8] [nM]	IC50 [2, 9] [nM]	IC50 [3, 10] [nM]	IC50 [4, 11] [nM]	IC50 ([1]; antagonist mode, 8 μM SLIGKV) [nM]	IC50 ([2]; antagonist mode, 3.1 U/mL trypsin) [nM]	IC50 ([3]; antagonist mode, 1 U/mL Thrombin) [nM]	IC50 ([4]; antagonist mode, 0.6 μM UTP) [nM]
CC(C)(O)C(=O)N1CCN(C(=O)c2cn3nc(-c4ccc(F)cc4)cc(C4(C)CC4)c3n2)C(C)(C)C1 [Compound I-32, 1-[4-[6-(4-fluorophenyl)-8-(1-methylcyclopropyl)imidazo[1,2-b]pyridazine-2-carbonyl]-3,3-dimethyl-piperazin-1-yl]-2-hydroxy-2-methyl-propan-1-one]	17	21	> 50000	> 50000	29.3	2.2	39	1.4								
Cc1cc(C(=O)N2CCN(C(=O)c3cn4nc(-c5ccc(F)cc5)cc(C(C)C)c4n3)C(C)(C)C2)[nH]n1 [Compound I-303]					7.15	2.04	69	5.36	2	2	> 1000	> 1000				
CC1(C)C(=O)NCCN1C(=O)c1cn2nc(-c3ccc(F)cc3)cc(C3CCOCC3)c2n1 [Compound I-29, 4-[6-(4-fluorophenyl)-8-tetrahydropyran-4-yl-imidazo[1,2-b]pyridazine-2-carbonyl]-3,3-dimethyl-piperazin-2-one]	240	390	> 50000	> 50000	3.6	1.8	71	6.7								
Cc1cc(-c2ccc(F)cc2)nn2cc(C(=O)N3CCN(C(=O)[C@H](O)CC(C)(C)C)[C@@H](C)C3)nc12 [Compound I-9, (R)-1-((S)-4-(6-(4-Fluorophenyl)-8-methylimidazo[1,2-b]pyridazine-2-carbonyl)-2-methylpiperazin-1-yl)-2-hydroxy-4,4-dimethylpentan-1-one]	9	110	> 5000	> 5000	21.7	1.4	57	1.2								
CC(C)(C)c1cc(-c2ccc(Cl)cc2)nn2cc(C(=O)N3CCN(C(=O)C4CC(C(=O)O)C4)CC3(C)C)nc12 (stereo not shown) [Compound I-489]									1	0.9	8600	4100				
CC(C)c1cc(-c2ccc(C#N)cc2)nn2cc(C(=O)N3CCN(C(=O)C(C)(C)O)CC3(C)C)nc12 [Compound I-220]									760	880	> 1000	> 1000				
COCCC(=O)N1CCN(C(=O)c2cn3nc(-c4ccc(F)cc4)cc(C(C)C)c3n2)C[C@@H]1C [Compound I-129]	120	500	41000	37000												
O=C(c1cn2nc(-c3ccc(F)cc3)cc(C(F)(F)F)c2n1)N1CC[C@@]2(O)CCCC[C@H]2C1 [Compound I-70]	3700	5700	12000	17000												
CC(C)(CC(=O)O)C(=O)N1CCN(C(=O)c2cn3nc(-c4ccc(F)cc4)cc(C(C)(C)C)c3n2)C(C)(C)C1 [Compound I-571]													1.1	3.3	980	> 1000
